Reference: patent EP4778920A1, “INDAZOLONE COMPOUND, PREPARATION METHOD THEREFOR, PHARMACEUTICAL COMPOSITION, AND USE” (Shanghai Institute of Materia Medica, Chinese Academy of …, priority 2023, dated 2025)
Read-outs that look alike come from different tables or passages of the source.

Legend:
Type in all cases: cell-based
MM.1S cells = experiment: MM.1S cell proliferation inhibition (MTS assay); settings: Homo sapiens, MM1.S, 168 h, 7 days incubation, read-out: MM1.S (IC50, Inhibitory Activity of Compounds on MM.1S Cell Proliferation)
Protocol: The cell concentration was diluted according to a 7-day incubation period, and 180 µL of cell suspension was added to each well of a 96-well plate, with 20,000 cells per well. […] The test compounds were prepared from a 10 mM stock solution and serially diluted in a 5-fold gradient, and 20 µL of the diluted solution was added to each compound-treated well (final DMSO concentration also 0.2%). The cells were incubated in a 37 °C, 5% CO2 incubator for 7 days. After incubation, the reaction solution was prepared according to the MTS assay kit instructions (Promega, G5430), and 20 µL was added to each well. The plate was incubated at 37 °C with 5% CO2 for 3-4 hours. The absorbance at 490 nm was measured using a microplate reader, and the absorbance at 690 nm was used as the background value. […] The IC50 values for cell proliferation inhibition were determined using GraphPad Prism 5.0. Each experiment was repeated three times, and three parallel replicates were performed in each experiment to calculate the mean value and standard deviation.
Inhibitory Activity of Compounds on MM.1S Cell Proliferation

Mino cells = experiment: Mino cell proliferation inhibition (MTS assay); settings: Homo sapiens, 72 h, 3 days incubation, read-out: Mino (IC50, Inhibitory Activity of Compounds on Mino Cell Proliferation)
Protocol: The cell concentration was diluted according to a 3-day incubation period, and 90 µL of cell suspension was added to each well of a 96-well plate, resulting in 8,000 cells per well. […] The test compounds were prepared from a 10 mM stock solution and serially diluted in a five-fold gradient. Similarly, 10 µL of the diluted compound solution was added to each compound-treated well (final DMSO concentration 0.2%).
The cells were incubated in a 37 °C, 5% CO2 incubator for 3 days. After incubation, the reaction solution was prepared according to the MTS assay kit instructions (Promega, G5430), and 20 µL was added to each well. The plate was further incubated at 37 °C with 5% CO2 for 3-4 hours. The absorbance at 490 nm was measured using a microplate reader, and the absorbance at 690 nm was used as the background value. The final raw data were calculated as OD490 - OD690. […] The IC50 values for cell proliferation inhibition were determined using GraphPad Prism 5.0. Each experiment was repeated three times, and three parallel replicates were performed in each experiment to calculate the mean value and standard deviation.
Table 2. Inhibitory Activity of Compounds on Mino Cell Proliferation

MV-4-11 cells = experiment: MV-4-11 cell proliferation inhibition (MTS assay); settings: Homo sapiens
Protocol: MV-4-11 cells were cultured in IMDM medium supplemented with 10% fetal bovine serum and collected. The cell concentration was diluted according to a 7-day incubation period, and 180 µL of cell suspension was added to each well of a 96-well plate, resulting in 2,000 cells per well. […] The test compounds were prepared from a 10 mM stock solution and serially diluted in a five-fold gradient, and 20 µL of the diluted compound solution was added to each compound-treated well (final DMSO concentration 0.2%). The cells were incubated in a 37 °C, 5% CO2 incubator for 7 days. After incubation, the reaction solution was prepared according to the MTS assay kit instructions (Promega, G5430), and 20 µL was added to each well. The plate was further incubated at 37 °C with 5% CO2 for 3-4 hours. The absorbance at 490 nm was measured using a microplate reader, and the absorbance at 690 nm was used as the background value. The final raw data were calculated as OD490 - OD690. […] The IC50 values for cell proliferation inhibition were determined using GraphPad Prism 5.0. Each experiment was repeated three times, and three parallel replicates were performed in each experiment to calculate the mean value and standard deviation.
Table 3. Inhibitory Activity of Compounds on MV-4-11 Cell Proliferation

[1] = MV4-11, 168 h, 7 days incubation, MTS, read-out: MV-411 (IC50, Inhibitory Activity of Compounds on MV-4-11 Cell Proliferation)
[2] = MV4-11, reference compounds, read-out: cell growth inhibitory activity (IC50)

Row | Compound | IC50 (MM.1S cells) | IC50 (MV-4-11 cells; [1]) | IC50 (MV-4-11 cells; [2]) | IC50 (Mino cells)
1 | O=C1CC[C@H](n2[nH]c3c(OCc4cnc(-c5ccc(OC(F)(F)F)cc5)o4)cccc3c2=O)C(=O)N1 [Compound D26, (S)-3-(3-Oxo-7-((2-(4-(trifluoromethoxy)phenyl)oxazol-5-yl)methoxy)-1,3-dihydro-2H-indazol-2-yl)piperidine-2,6-dione] | 1 to 10 µM | 1 to 20 µM | – | 1 to 10 µM
2 | O=C1CCC(n2[nH]c3c(OCc4ccc(CN5CC(N6CCOCC6)C5)cc4)cccc3c2=O)C(=O)N1 (centres unmarked) [Compound D13, 3-(7-((4-((3-morpholinoazetidin-1-yl)methyl)benzyl)oxy)-3-oxo-1,3-dihydro-2H-indazol-2-yl)piperidine-2,6-dione] | < 0.2 µM | 0.2 to 1 µM | – | 1 to 10 µM
3 | O=C1CCC(n2[nH]c3c(OCc4ccc(CN5CCN(c6ccc(C(F)(F)F)cc6)CC5)cc4)cccc3c2=O)C(=O)N1 (centres unmarked) [Compound D11, 3-(3-Oxo-7-((4-((4-(4-(trifluoromethyl)phenyl)piperazin-1-yl)methyl)benzyl)oxy)-1,3-dihydro-2H-indazol-2-yl)piperidine-2,6-dione] | < 0.2 µM | < 0.2 µM | – | 0.2 to 1 µM
4 | Cn1c2c(OCc3ccc(CN4CCOCC4)cc3)cccc2c(=O)n1C1CCC(=O)NC1=O (centres unmarked) [Compound D22, 3-(1-Methyl-7-((4-(morpholinomethyl)benzyl)oxy)-3-oxo-1,3-dihydro-2H-indazol-2-yl)piperidine-2,6-dione] | < 0.2 µM | > 20 µM | – | > 10 µM
5 | COc1ccc(-c2ncc(COc3cccc4c(=O)n(C5CCC(=O)NC5=O)[nH]c34)o2)cc1 (centres unmarked) [Compound D28, 3-(7-((2-(4-methoxyphenyl)oxazol-5-yl)methoxy)-3-oxo-1,3-dihydro-2H-indazol-2-yl)piperidine-2,6-dione] | 1 to 10 µM | > 20 µM | – | > 10 µM
6 | O=C1CCC(n2[nH]c3c(OCc4ccc(CN5CC(N6CCOCC6)C5)cc4)cc(F)cc3c2=O)C(=O)N1 (centres unmarked) [Compound D20, 3-(5-Fluoro-7-((4-((3-morpholinoazetidin-1-yl)methyl)benzyl)oxy)-3-oxo-1,3-dihydro-2H-indazol-2-yl)piperidine-2,6-dione] | < 0.2 µM | 0.2 to 1 µM | – | 0.2 to 1 µM
7 | O=C1CC[C@H](N2Cc3c(OCc4ccc(CN5CCOCC5)cc4)cccc3C2=O)C(=O)N1 [CC-220, reference compound] | – | – | > 20 µM | –
8 | O=C1CCC(n2[nH]c3c(OCc4ccc(CN5CCN(c6ccc(C(F)(F)F)cc6)CC5)cc4)cc(F)cc3c2=O)C(=O)N1 (centres unmarked) [Compound D17, 3-(5-Fluoro-3-oxo-7-((4-((4-(4-(trifluoromethyl)phenyl)piperazin-1-yl)methyl)benzyl)oxy)-1,3-dihydro-2H-indazol-2-yl)piperidine-2,6-dione] | < 0.2 µM | < 0.2 µM | – | < 0.2 µM
9 | O=C1CCC(n2[nH]c3c(OCc4ccc(CN5CCN(c6ccc(Cl)cc6Cl)CC5)cc4)cccc3c2=O)C(=O)N1 (centres unmarked) [Compound D12, 3-(7-((4-((4-(2,4-dichlorophenyl)piperazin-1-yl)methyl)benzyl)oxy)-3-oxo-1,3-dihydro-2H-indazol-2-yl)piperidine-2,6-dione] | < 0.2 µM | < 0.2 µM | – | 0.2 to 1 µM
10 | O=C1CCC(n2[nH]c3cc(C(=O)NCc4ccc(Cl)cc4)ccc3c2=O)C(=O)N1 (centres unmarked) [Compound D29, N-(4-chlorobenzyl)-2-(2,6-dioxopiperidin-3-yl)-3-oxo-2,3-dihydro-1H-indazole-6-carboxamide] | > 10 µM | > 20 µM | – | > 10 µM
11 | Cn1c2c(OCc3ccc(CN4CCN(c5ccc(C#N)cc5F)CC4)cc3)cccc2c(=O)n1C1CCC(=O)NC1=O (centres unmarked) [Compound D24, 4-(4-(4-(((2-(2,6-dioxopiperidin-3-yl)-1-methyl-3-oxo-2,3-dihydro-1H-indazol-7-yl)oxy)methyl)benzyl)piperazin-1-yl)-3-fluorobenzonitrile] | < 0.2 µM | > 20 µM | – | < 0.2 µM
12 | O=C1CCC(n2[nH]c3cc(C(=O)N[C@@H]4CCOc5ccc(Cl)cc54)ccc3c2=O)C(=O)N1 (stereo partly drawn) [Compound D41, N-((R)-6-chlorochroman-4-yl)-2-(2,6-dioxopiperidin-3-yl)-3-oxo-2,3-dihydro-1H-indazole-6-carboxamide] | > 10 µM | > 20 µM | – | > 10 µM

Further lines, with some results ahead:

Row | IC50 (MM.1S cells) | IC50 (MV-4-11 cells; [1]) | IC50 (MV-4-11 cells; [2]) | Compound | IC50 (Mino cells)
13 | > 10 µM | > 20 µM | – | Cc1cccc2c1OCC[C@H]2NC(=O)c1ccc2c(=O)n(C3CCC(=O)NC3=O)[nH]c2c1 (stereo partly drawn) [Compound D42, 2-(2,6-dioxopiperidin-3-yl)-N-((R)-8-methylchroman-4-yl)-3-oxo-2,3-dihydro-1H-indazole-6-carboxamide] | > 10 µM
14 | > 10 µM | > 20 µM | – | C[C@H](NC(=O)c1ccc2c(=O)n(C3CCC(=O)NC3=O)[nH]c2c1)c1cccc(Cl)c1 (stereo partly drawn) [Compound D39, N-((S)-1-(3-chlorophenyl)ethyl)-2-(2,6-dioxopiperidin-3-yl)-3-oxo-2,3-dihydro-1H-indazole-6-carboxamide] | > 10 µM
15 | > 10 µM | > 20 µM | – | O=C1CCC(n2[nH]c3cc(C(=O)N[C@H](c4ccccc4)C(F)(F)F)ccc3c2=O)C(=O)N1 (stereo partly drawn) [Compound D37, 2-(2,6-dioxopiperidin-3-yl)-3-oxo-N-((R)-2,2,2-trifluoro-1-phenylethyl)-2,3-dihydro-1H-indazole-6-carboxamide] | > 10 µM
16 | > 10 µM | > 20 µM | – | C[C@H](NC(=O)c1ccc2c(=O)n(C3CCC(=O)NC3=O)[nH]c2c1)c1ccc(F)cc1F (stereo partly drawn) [Compound D38, N-((S)-1-(2,4-difluorophenyl)ethyl)-2-(2,6-dioxopiperidin-3-yl)-3-oxo-2,3-dihydro-1H-indazole-6-carboxamide] | > 10 µM
17 | > 10 µM | > 20 µM | – | Cc1ccc(CNC(=O)c2ccc3c(=O)n(C4CCC(=O)NC4=O)[nH]c3c2)cc1 (centres unmarked) [Compound D36, 2-(2,6-dioxopiperidin-3-yl)-N-(4-methylbenzyl)-3-oxo-2,3-dihydro-1H-indazole-6-carboxamide] | > 10 µM
18 | > 10 µM | > 20 µM | – | O=C1CCC(n2[nH]c3cc(C(=O)N[C@@H](c4ccccc4)C(F)(F)F)ccc3c2=O)C(=O)N1 (stereo partly drawn) [Compound D35, 2-(2,6-dioxopiperidin-3-yl)-3-oxo-N-((S)-2,2,2-trifluoro-1-phenylethyl)-2,3-dihydro-1H-indazole-6-carboxamide] | > 10 µM
19 | > 10 µM | > 20 µM | – | C[C@@H](NC(=O)c1ccc2c(=O)n(C3CCC(=O)NC3=O)[nH]c2c1)c1ccc(Cl)cc1 (stereo partly drawn) [Compound D34, N-((R)-1-(4-chlorophenyl)ethyl)-2-(2,6-dioxopiperidin-3-yl)-3-oxo-2,3-dihydro-1H-indazole-6-carboxamide] | > 10 µM
20 | > 10 µM | > 20 µM | – | C[C@H](NC(=O)c1ccc2c(=O)n(C3CCC(=O)NC3=O)[nH]c2c1)c1ccccc1 (stereo partly drawn) [Compound D33, 2-(2,6-dioxopiperidin-3-yl)-3-oxo-N-((S)-1-phenylethyl)-2,3-dihydro-1H-indazole-6-carboxamide] | > 10 µM
21 | – | – | > 20 µM | Nc1cccc2c1C(=O)N(C1CCC(=O)NC1=O)C2=O (centres unmarked) [pomalidomide, reference compound] | –
22 | > 10 µM | > 20 µM | – | Cc1ccc([C@H](C)NC(=O)c2ccc3c(=O)n(C4CCC(=O)NC4=O)[nH]c3c2)cc1 (some centres unmarked) [Compound D31] | > 10 µM
